# Test results published in patent US10336702B2, “Pharmaceutically active compounds” (BERGENBIO ASA, priority 2015, dated 2019).
# How the values were obtained:
# Akt2 = biological target: T1, Akt2 (Homo sapiens, UniProt P31751); assay: Akt activation assay (PDK1-mediated activation, LANCE Ultra crosstide TR-FRET), Akt2; assay type: biochemical; details: read-out: Biological Assay 1 IC50 (nM) Akt2
# T1 construct: unspecified tag, removed (detagged) (cleaved yes); purchased SignalChem and Proteros (Akt2); Merck Millipore (PDK1) 14-452 (PDK1); none given for Akt2
# Summary of the method: (§1)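 TR-FRET read-out (665/615 nm ratio) after Eu-anti-phospho-crosstide antibody, 1 h. Reaction: compound preincubated with Akt isoform, then 5 nM PDK1, lipid vesicles with 0.55 μM PtdIns(3,4,5)P3, 100 μM ATP, 100 nM crosstide, 30 min, EDTA stop. IC50 from 4-parameter equation.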
# p-Akt2 in WM115 cells = biological target: T2, p-Akt2 in WM115 cells (Homo sapiens, UniProt P31751); assay: Phospho-Akt cellular SureFire assay, p-Akt2 in WM115 cells; assay type: cell-based; details: insulin stimulated, read-out: Biological Assay 2 IC50 (nM) Akt2 WM115
# T2 construct: SureFire assays to detect cellular p-Akt1, p-Akt2 and p-Akt3 levels in WM115 cells (Akt2/3) and LNCaP cells (Akt1); endogenous in cells; host or cells: WM115 (ECACC 91061232), insulin-stimulated
# Summary of the method: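 Readout is a bead-proximity SureFire assay pairing a pThr308 Akt antibody with a total Akt2 antibody, lysate and beads incubated 2 h plus 2 h at room temperature in the dark. Before lysis, serum-starved WM115 cells received 100 nM insulin (10 min), then test compound (15 min, 0.3% DMSO); IC50 by 4-parameter equation.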
# Akt3 = biological target: T3, Akt3 (Homo sapiens, UniProt Q9Y243); assay: Akt activation assay (PDK1-mediated activation, LANCE Ultra crosstide TR-FRET), Akt3; assay type: biochemical; details: read-out: Biological Assay 1 IC50 (nM) Akt3
# T3 construct: unspecified tag, removed (detagged) (cleaved yes); purchased SignalChem and Proteros (Akt3); Merck Millipore (PDK1) 14-452 (PDK1); none given for Akt3
# Summary of the method: as §1
# p-Akt3 in WM115 cells = biological target: T4, p-Akt3 in WM115 cells (Homo sapiens, UniProt Q9Y243); assay: Phospho-Akt cellular SureFire assay, p-Akt3 in WM115 cells; assay type: cell-based; details: insulin stimulated, read-out: Biological Assay 2 IC50 (nM) Akt3 WM115
# T4 construct: SureFire assays to detect cellular p-Akt1, p-Akt2 and p-Akt3 levels in WM115 cells (Akt2/3) and LNCaP cells (Akt1); endogenous in cells; host or cells: WM115 (ECACC 91061232), insulin-stimulated
# Summary of the method: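 pThr308-Akt3 in lysates was quantified by bead-proximity SureFire detection, pairing a phospho-specific antibody with a total Akt3 antibody. Before lysis, WM115 cells in 0.1% FBS medium were treated for 15 min at 37 °C with compound (final DMSO 0.3%), following a 10 min stimulation with 100 nM insulin. IC50 was obtained by 4-parameter fitting.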
# p-Akt1 in LNCaP cells = biological target: T5, p-Akt1 in LNCaP cells (Homo sapiens, UniProt P31749); assay: Phospho-Akt cellular SureFire assay, p-Akt1 in LNCaP cells; assay type: cell-based; details: read-out: Biological Assay 2 IC50 (nM) Akt1 LNCaP
# T5 construct: SureFire assays to detect cellular p-Akt1, p-Akt2 and p-Akt3 levels in WM115 cells (Akt2/3) and LNCaP cells (Akt1); endogenous in cells; host or cells: LNCaP (ECACC 89110211)
# Summary of the method: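 Phospho-Thr308 Akt1 detected by AlphaScreen SureFire proximity beads in LNCaP lysates after 15 min compound treatment at 37 °C in 0.1% FBS medium, unstimulated, 0.3% DMSO. Cells plated at 5×10^4/well overnight; IC50 from a 4-parameter equation.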
# Akt1 = biological target: T6, Akt1 (Homo sapiens, UniProt P31749); assay: Akt activation assay (PDK1-mediated activation, LANCE Ultra crosstide TR-FRET), Akt1; assay type: biochemical; details: read-out: Biological Assay 1 IC50 (nM) Akt1
# T6 construct: unspecified tag, removed (detagged) (cleaved yes); purchased SignalChem and Proteros (Akt1); Merck Millipore (PDK1) 14-452 (PDK1); none given for Akt1
# Summary of the method: as §1
# T1 sequence (P31751 whole entry): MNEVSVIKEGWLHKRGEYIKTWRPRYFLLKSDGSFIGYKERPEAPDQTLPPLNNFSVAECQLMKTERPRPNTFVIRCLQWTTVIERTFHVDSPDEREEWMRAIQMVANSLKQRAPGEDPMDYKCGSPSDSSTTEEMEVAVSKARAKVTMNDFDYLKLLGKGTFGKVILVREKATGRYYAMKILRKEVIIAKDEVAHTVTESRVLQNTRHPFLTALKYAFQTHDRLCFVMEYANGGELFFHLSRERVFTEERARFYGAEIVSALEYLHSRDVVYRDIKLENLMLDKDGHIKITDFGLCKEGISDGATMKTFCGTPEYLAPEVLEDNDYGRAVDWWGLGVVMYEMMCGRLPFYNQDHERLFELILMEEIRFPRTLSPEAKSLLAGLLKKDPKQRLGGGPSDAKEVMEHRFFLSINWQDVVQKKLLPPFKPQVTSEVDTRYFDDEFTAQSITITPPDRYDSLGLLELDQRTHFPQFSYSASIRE
# T2 sequence (P31751 whole entry): as above
# T6 sequence (P31749 whole entry): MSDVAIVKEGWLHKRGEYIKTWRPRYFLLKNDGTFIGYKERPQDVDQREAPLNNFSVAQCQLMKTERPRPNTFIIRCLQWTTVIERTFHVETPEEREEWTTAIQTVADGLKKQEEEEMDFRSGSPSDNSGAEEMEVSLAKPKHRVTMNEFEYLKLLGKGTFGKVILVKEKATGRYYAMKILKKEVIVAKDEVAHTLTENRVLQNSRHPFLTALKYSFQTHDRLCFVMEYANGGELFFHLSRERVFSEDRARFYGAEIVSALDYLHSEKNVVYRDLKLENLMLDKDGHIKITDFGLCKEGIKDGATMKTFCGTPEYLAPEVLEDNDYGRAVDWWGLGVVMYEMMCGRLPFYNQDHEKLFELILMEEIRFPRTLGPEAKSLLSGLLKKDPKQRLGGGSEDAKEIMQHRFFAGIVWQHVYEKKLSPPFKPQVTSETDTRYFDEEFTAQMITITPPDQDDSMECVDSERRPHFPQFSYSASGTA
# T5 sequence (P31749 whole entry): as above
# T4 sequence (Q9Y243 whole entry): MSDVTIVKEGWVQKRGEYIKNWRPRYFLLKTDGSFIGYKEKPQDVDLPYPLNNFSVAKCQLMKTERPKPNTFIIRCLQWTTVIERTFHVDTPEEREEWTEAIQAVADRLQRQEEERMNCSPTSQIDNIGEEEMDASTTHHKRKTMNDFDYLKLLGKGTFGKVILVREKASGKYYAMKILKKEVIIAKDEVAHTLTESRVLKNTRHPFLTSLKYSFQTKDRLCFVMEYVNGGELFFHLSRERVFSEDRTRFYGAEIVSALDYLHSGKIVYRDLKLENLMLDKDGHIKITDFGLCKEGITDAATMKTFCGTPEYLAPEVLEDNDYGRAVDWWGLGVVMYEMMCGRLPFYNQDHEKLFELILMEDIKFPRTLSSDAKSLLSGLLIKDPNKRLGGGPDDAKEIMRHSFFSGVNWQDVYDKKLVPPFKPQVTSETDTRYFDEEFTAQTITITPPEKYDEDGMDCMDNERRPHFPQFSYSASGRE
# T3 sequence (Q9Y243 whole entry): as above
Structure (SMILES),IC50 (Akt2),IC50 (p-Akt2 in WM115 cells),IC50 (Akt3),IC50 (p-Akt3 in WM115 cells),IC50 (p-Akt1 in LNCaP cells),IC50 (Akt1)
"COC(=O)N(C)[C@H]1CC[C@H](CC(=O)Nc2cnc(-c3ccc(C(C)(C)N)c(F)c3)c(-c3ccccc3)c2)CC1 [Example A28, Methyl (trans-4-(2-((6-(4-(2-aminopropan-2-yl)-3-fluorophenyl)-5-phenylpyridin-3-yl)amino)-2-oxoethyl)cyclohexyl)(methyl)carbamate]",> 30000 nM,> 20000 nM,5900 nM,1500 nM,> 30000 nM,> 30000 nM
"CN(C(=O)C1CC1)[C@H]1CC[C@H](CC(=O)Nc2cnc(-c3ccc(C(C)(C)N)cc3)c(-c3ccsc3)c2)CC1 [Example 27, N-(trans-4-(2-((6-(4-(2-aminopropan-2-yl)phenyl)-5-(thiophen-3-yl)pyridin-3-yl)amino)-2-oxoethyl)cyclohexyl)-N-methylcyclopropanecarboxamide]",12000 nM,10000 nM,680 nM,380 nM,> 30000 nM,> 30000 nM
"CC(C)(N)c1ccc(-c2ncc(NC(=O)C[C@H]3CC[C@H](NC(=O)C4CC4)CC3)cc2-c2ccsc2)cc1 [Example 26, N-(trans-4-(2-((6-(4-(2-aminopropan-2-yl)phenyl)-5-(thiophen-3-yl)pyridin-3-yl)amino)-2-oxoethyl)cyclohexyl)cyclopropanecarboxamide]",12000 nM,9000 nM,1600 nM,380 nM,> 16000 nM,> 30000 nM
"COCCN(C)[C@H]1CC[C@H](CC(=O)Nc2cc(-c3ccccc3)c(-c3ccc([C@]4(N)C[C@](C)(O)C4)cc3)cn2)CC1 [Example 128, N-(5-(4-(trans-1-amino-3-hydroxy-3-methylcyclobutyl)phenyl)-4-phenylpyridin-2-yl)-2-(trans-4-((2-methoxyethyl)(methyl)amino)cyclohexyl)acetamide]",370 nM,810 nM,110 nM,93 nM,5500 nM,> 18000 nM
"CCCC(=O)N[C@H]1CC[C@H](CC(=O)Nc2cnc(-c3ccc(C4(N)CC4)cc3)c(-c3ccccc3)c2)CC1 [Example A41, N-(trans-4-(2-((6-(4-(1-aminocyclopropyl)phenyl)-5-phenylpyridin-3-yl)amino)-2-oxoethyl)cyclohexyl)butyramide]",370 nM,840 nM,75 nM,59 nM,3600 nM,11000 nM

# Compounds with a lower IC50 (Akt2), results first:
IC50 (Akt2),IC50 (p-Akt2 in WM115 cells),IC50 (Akt3),IC50 (p-Akt3 in WM115 cells),IC50 (p-Akt1 in LNCaP cells),IC50 (Akt1),Structure (SMILES)
180 nM,1500 nM,8 nM,37 nM,> 9300 nM,> 6500 nM,"COC(=O)N(C)[C@H]1CC[C@H](CC(=O)Nc2cc(-c3ccccc3)c(-c3ccc([C@]4(N)C[C@](C)(O)C4)cc3)cn2)CC1 [Example 67, Methyl (trans-4-(2-((5-(4-(trans-1-amino-3-hydroxy-3-methylcyclobutyl)phenyl)-4-phenylpyridin-2-yl)amino)-2-oxoethyl)cyclohexyl)(methyl)carbamate]"
120 nM,2600 nM,7 nM,48 nM,5900 nM,8900 nM,"COC(=O)N(C(C)C)[C@H]1CC[C@H](CC(=O)Nc2cc(-c3ccccc3)c(-c3ccc([C@]4(N)C[C@](C)(O)C4)cc3)nn2)CC1 [Example 101, Methyl (trans-4-(2-((6-(4-(trans-1-amino-3-hydroxy-3-methylcyclobutyl)phenyl)-5-phenylpyridazin-3-yl)amino)-2-oxoethyl)cyclohexyl)(isopropyl)carbamate]"
86 nM,250 nM,4 nM,7 nM,820 nM,2100 nM,"CCC(=O)N(C)[C@H]1CC[C@H](CC(=O)Nc2cc(-c3ccccc3)c(-c3ccc([C@]4(N)C[C@](C)(O)C4)cc3)nn2)CC1 [Example 83, N-(trans-4-(2-((6-(4-(trans-1-amino-3-hydroxy-3-methylcyclobutyl)phenyl)-5-phenylpyridazin-3-yl)amino)-2-oxoethyl)cyclohexyl)-N-methylpropionamide]"
